In patent US12377110B2, “Fospropofol methods and compositions” (Epalex Corporation, priority 2019, dated 2025):

Tested on: adult women and men experiencing moderate to severe migraine headache
Assay: Study A17: safety-tolerability (TEAEs)
Conditions: N = 18, 800 mg oral
Protocol: The study is planned to complete approximately 85 subjects. • Enrolled subjects will be asked to come to the study site for treatment when they experience a qualifying migraine headache. Dosing must occur within 4 hours after onset of the migraine symptoms. If treatment at the study site is not feasible or practicable within 4 hours after onset of migraine symptoms, subjects should use their usual medication for that headache and attempt to visit the clinic for treatment as soon as possible (within 4 hours) after onset of their next migraine headache. Dosing must occur within 60 days after enrollment (see Post-enrollment Period below). • At clinic check-in for treatment, study personnel will verify eligibility for closing regarding the criteria for a qualifying headache and adherence to post-enrollment study restrictions (see Eligibility for Dosing below). • Treatment will consist of a single oral dose of fospropofol disodium. […] Because the prevalence of migraine headaches is higher in women than in men, efforts will be made to enroll at least 50% women. • Subjects must meet the general inclusion and exclusion criteria listed below (Inclusion Criteria and Exclusion Criteria) at screening to be enrolled in the study. To be eligible for fospropofol disodium treatment after onset of a migraine headache, enrolled subjects must meet criteria specific to the presenting headache at clinic check-in (see Qualifying Headache below) and adhere to study restrictions specific to the period between enrollment and clinic check-in (see Post-enrollment Restrictions below). • Inclusion Criteria Subjects must meet all of the following criteria at screening to be enrolled in the study: • 1. Written informed consent approved by the Institutional Review Board (IRB) given before any study-related procedures are performed • 2. […] Complete abstinence alone can be used as a method of contraception. • 6. […] Able to comprehend the nature of the study, capable of giving written informed consent, and able to communicate effectively with clinic staff (as assessed by the investigator) • 8. Available to volunteer for the entire study duration and willing to adhere to all protocol requirements, including the post-enrollment restrictions (see Post-enrollment Restrictions below) • 9. Agrees not to post any information related to the study on any website or social media site (e.g., Facebook, Twitter, LinkedIn, Google+, etc.) until the entire trial has been completed • 10. Willing to forgo rescue medicine for at least 2 hours after initiation of treatment with study drug (see In-Clinic Rescue Medicine) • Exclusion Criteria Subjects to whom any of the following criteria apply at screening will be excluded: • 1. History of hemiplegic migraine (at any time in the past). • 2. History of headaches of any type occurring on ≥15 days/month during any of the 3 months prior to screening. • 3.

SMILES: CC(C)c1cccc(C(C)C)c1OCOP(=O)([O-])O.[Na+] [fospropofol disodium]
- Number of TEAEs, E, by severity (Mild): 5
- Number of subjects with at least 1 TEAE, by severity (Mild): 3
- Number of TEAEs, E, by severity (Moderate): 3
- Number of subjects with at least 1 TEAE, by severity (Moderate): 3^1
- Dry mouth: number of TEAEs, E: 1
- Dry mouth: subjects with TEAE, %: 7.7%
- Dysgeusia: number of TEAEs, E: 1
- Dysgeusia: subjects with TEAE, %: 5.6%
- Gastrointestinal disorders: number of TEAEs, E: 2
- Gastrointestinal disorders: subjects with TEAE, %: 11.1%
- Genital paraesthesia: number of TEAEs, E: 2
- Genital paraesthesia: subjects with TEAE, %: 5.6%
- Nausea: number of TEAEs, E: 1
- Nausea: subjects with TEAE, %: 7.7%
- Nervous system disorders: number of TEAEs, E: 4
- Nervous system disorders: subjects with TEAE, %: 16.7%
- Number of TEAEs, E: 9
- Paraesthesia: number of TEAEs, E: 2
- Paraesthesia: subjects with TEAE, %: 11.1%
- Pruritus: number of TEAEs, E: 1
- Pruritus: subjects with TEAE, %: 5.6%
- Reproductive system and breast disorders: number of TEAEs, E: 2
- Reproductive system and breast disorders: subjects with TEAE, %: 5.6%
- Skin and subcutaneous tissue disorders: number of TEAEs, E: 1
- Skin and subcutaneous tissue disorders: subjects with TEAE, %: 5.6%
- Somnolence: number of TEAEs, E: 1
- Somnolence: subjects with TEAE, %: 5.6%
- Subjects with at least 1 TEAE, %: 33.3%
- Relation of TEAEs to study drug: Dry mouth (Possibly related): 0
- Relation of TEAEs to study drug: Dysgeusia (Possibly related): 0
- Relation of TEAEs to study drug: Gastrointestinal disorders (Possibly related): 1
- Relation of TEAEs to study drug: Genital paraesthesia (Possibly related): 0
- Relation of TEAEs to study drug: Nausea (Possibly related): 1
- Relation of TEAEs to study drug: Nervous system disorders (Possibly related): 0
- Relation of TEAEs to study drug: Number of TEAEs, E (Possibly related): 2
- Relation of TEAEs to study drug: Paraesthesia (Possibly related): 0
- Relation of TEAEs to study drug: Pruritus (Possibly related): 1
- Relation of TEAEs to study drug: Reproductive system and breast disorders (Possibly related): 0
- Relation of TEAEs to study drug: Skin and subcutaneous tissue disorders (Possibly related): 1
- Relation of TEAEs to study drug: Somnolence (Possibly related): 0
- Relation of TEAEs to study drug: Dry mouth (Probably related): 1
- Relation of TEAEs to study drug: Dysgeusia (Probably related): 1
- Relation of TEAEs to study drug: Gastrointestinal disorders (Probably related): 1
- Relation of TEAEs to study drug: Genital paraesthesia (Probably related): 2
- Relation of TEAEs to study drug: Nervous system disorders (Probably related): 4
- Relation of TEAEs to study drug: Number of TEAEs, E (Probably related): 7
- Relation of TEAEs to study drug: Paraesthesia (Probably related): 2
- Relation of TEAEs to study drug: Pruritus (Probably related): 0
- Relation of TEAEs to study drug: Reproductive system and breast disorders (Probably related): 2
- Relation of TEAEs to study drug: Skin and subcutaneous tissue disorders (Probably related): 0
- Relation of TEAEs to study drug: Somnolence (Probably related): 1
- Number of TEAEs, E, by severity (Severe): 1
- Number of subjects with at least 1 TEAE, by severity (Severe): 1^1
